EC50 data for ten compounds are collected here from patent US7268147B2, “Compounds useful for the treatment of diseases” (Pfizer Inc, priority 2003, dated 2007).

In general, EC50 refers to the concentration at which the effect is half-maximal.

In the assay the target is T1, human β2 adrenergic receptor (Homo sapiens, UniProt P07550).
T1 construct: expressed in transfected cells; host or cells: CHO (Chinese Hamster Ovary) cells, CHOhβ2
T1 sequence (P07550 whole entry): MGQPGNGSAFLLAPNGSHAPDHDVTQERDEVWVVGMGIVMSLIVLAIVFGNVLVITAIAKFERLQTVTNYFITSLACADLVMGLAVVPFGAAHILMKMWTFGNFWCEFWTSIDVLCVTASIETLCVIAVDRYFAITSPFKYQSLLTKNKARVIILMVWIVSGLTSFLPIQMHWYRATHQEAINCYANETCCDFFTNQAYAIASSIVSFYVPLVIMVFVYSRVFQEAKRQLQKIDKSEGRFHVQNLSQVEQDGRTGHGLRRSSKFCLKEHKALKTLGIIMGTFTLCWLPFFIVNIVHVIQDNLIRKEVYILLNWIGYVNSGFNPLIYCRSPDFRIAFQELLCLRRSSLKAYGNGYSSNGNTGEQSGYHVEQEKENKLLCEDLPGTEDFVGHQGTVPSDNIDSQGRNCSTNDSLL
The assay is described as follows: Cell based cAMP β2 assay (cAMP-Flashplate, CHOhβ2 cells). Particulars: CHO cells recombinantly expressing the human β2 adrenergic receptor. The method, then: According to another alternative, the agonist potency for the β2 receptor of the compounds of the formula (1) may also be determined by the measure of the concentration of compound according to the present invention required to produce half maximal effect (EC50) for the β2 receptor.
10 mM/100% DMSO (dimethylsulfoxide) stock of compound is diluted to required top dose in 4% DMSO. This top dose is used to construct a 10-point semi-log dilution curve, all in 4% DMSO. […] Data was expressed as % Isoprenaline response.
Cells were seeded to give about 90% confluency for testing.
25 μl/well each dose of compound was transferred into a cAMP-Flashplate® (NEN, SMP004B), with 1% DMSO as basal controls and 100 nM Isoprenaline as max controls. This was diluted 1:2 by the addition of 25 μl/well PBS. […] Compounds were incubated with 50 μu/well cells for 1 hour. […] Dose-response data was expressed as % Isoprenaline activity and fitted using a four parameter sigmoid fit.
On to `C[C@H](Cc1cccc(CC(=O)NCc2ccc(Cl)c(Cl)c2)c1)NC[C@H](O)c1ccc(O)c(CO)c1` [Example 5, N-(3,4-Dichlorobenzyl)-2-(3-{(2R)-2-[(2R)-2-hydroxy-2-(4-hydroxy-3-hydroxymethyl-phenyl)-ethylamino]-propyl}-phenyl)-acetamide], for which the concentration for a half-maximal effect (EC50) was 0.024 nM.

As for `C[C@H](Cc1cccc(CC(=O)NCc2ccc(S(N)(=O)=O)cc2)c1)NC[C@H](O)c1ccc(O)c(CO)c1` [Example 6, N-[4-(Aminosulfonyl)benzyl]-2-(3-{(2R)-2-[(2R)-2-hydroxy-2-(4-hydroxy-3-hydroxymethyl-phenyl)-ethylamino]-propyl}-phenyl)-acetamide], the EC50 amounted to 0.007 nM.

`C[C@H](Cc1cccc(CC(=O)NCc2ccccc2O)c1)NC[C@H](O)c1ccc(O)c(CO)c1` [Example 3, N-(2-Hydroxybenzyl)-2-(3-{(2R)-2-[(2R)-2-hydroxy-2-(4-hydroxy-3-hydroxymethyl-phenyl)-ethylamino]-propyl}-phenyl)-acetamide]: the EC50 was 0.007 nM.

On to `C[C@H](Cc1cccc(CC(=O)NCCc2ccccc2)c1)NC[C@H](O)c1ccc(O)c(CO)c1` [Example 15, 2-(3-{(2R)-2-[(2R)-2-Hydroxy-2-(4-hydroxy-3-hydroxymethyl-phenyl)-ethylamino]-propyl}-phenyl)-N-(2-phenylethyl)acetamide], for which the EC50 amounted to 0.056 nM.

As for `Cc1ccc(CNC(=O)Cc2cccc(C[C@@H](C)NC[C@H](O)c3ccc(O)c(CO)c3)c2)cc1C` [Example 12, N-(3,4-Dimethylbenzyl)-2-(3-{(2R)-2-[(2R)-2-hydroxy-2-(4-hydroxy-3-hydroxymethyl-phenyl)-ethylamino]-propyl}-phenyl)-acetamide], the EC50 stood at 0.009 nM.

In the case of `C[C@H](Cc1cccc(CC(=O)NCc2ccc(C(N)=O)cc2)c1)NC[C@H](O)c1ccc(O)c(CO)c1` [Example 8, 4-{(2-(3-{(2R)-2-[(2R)-2-Hydroxy-2-(4-hydroxy-3-hydroxymethyl-phenyl)-ethylamino]-propyl}-phenyl)-acetylamino)-methyl}-benzamide], the 50% effective concentration (EC50) is 0.01 nM.

For the compound `C[C@H](Cc1cccc(CC(=O)NCc2ccccn2)c1)NC[C@H](O)c1ccc(O)c(CO)c1` [Example 7, 2-(3-{(2R)-2-[(2R)-2-Hydroxy-2-(4-hydroxy-3-hydroxymethyl-phenyl)-ethylamino]-propyl}-phenyl)-N-(pyridin-2-ylmethyl)-acetamide], the EC50 stood at 0.028 nM.

With `C[C@H](Cc1cccc(CC(=O)NC2Cc3ccccc3C2)c1)NC[C@H](O)c1ccc(O)c(CO)c1` [Example 4, 2-(3-{(2R)-2-[(2R)-2-Hydroxy-2-(4-hydroxy-3-hydroxymethyl-phenyl)-ethylamino]-propyl}-phenyl)-N-indan-2-yl-acetamide], the EC50 came out at 0.012 nM.

As for `COc1cccc(OC)c1CNC(=O)Cc1cccc(C[C@@H](C)NC[C@H](O)c2ccc(O)c(CO)c2)c1` [Example 1, N-(2,6-Dimethoxybenzyl)-2-(3-{(2R)-2-[(2R)-2-hydroxy-2-(4-hydroxy-3-hydroxymethyl-phenyl)-ethylamino]-propyl}-phenyl)-acetamide], the concentration for a half-maximal effect (EC50) stood at 0.017 nM.

For the compound `C[C@H](Cc1cccc(CC(=O)NCc2ccc(OC(F)(F)F)cc2)c1)NC[C@H](O)c1ccc(O)c(CO)c1` [Example 10, 2-(3-{(2R)-2-[(2R)-2-Hydroxy-2-(4-hydroxy-3-hydroxymethyl-phenyl)-ethylamino]-propyl}-phenyl)-N-(4-trifluoromethoxybenzyl)-acetamide], the concentration for a half-maximal effect (EC50) was 0.114 nM.
